Laboratory results: patent publication US20260151376A1, “COMBINATION THERAPY FOR THE TREATMENT OF CANCER” (INSTITUT NATIONAL DE LA SANTÉ ET DE LA RECHERCHE MÉDICALE, priority 2022, published 2026)

Experiments:
[1] = test system: CHOP; assay: Intra-tumoral proteins analysis by western blot: CHOP; format: in vivo, mice
[2] = test system: CT26 tumors; assay: CT26 tumor model, oral HA15 and anti-PDL1 (Example 2); format: in vivo, mice
Experimental: Mice: A total of 60 female BALB/C mice aged 5 weeks and weighted between 15-19 g, were ordered from Envigo. These had one week of acclimatation in C3M animal facility. Animals were housed in IVC cages (5 per cage) with individual mice identified by ear tag. All animals were allowed free access to a standard certified commercial diet and sanitised water during the study. The holding room was maintained under standard conditions: 18-24° C., 55-70% humidity and a 12h light/dark cycle. One week before dosing start, 2 animals died while blood sampling.
58 Mice were randomly assigned into the following treatment groups:
Cells: CT26 cell lines were thawed 2 weeks before mice arrival. These were cultured in RPMI medium supplemented with 10% FBS, 1% Penicillin/streptomycin and 2% sodium pyruvate. Cells were expanded 48 hrs prior to the subcutaneous injection in 5×T175 flasks at concentration of 0.8×10^6 cells. This concentration allows cells to be 70-80% confluency at the day of the injection. Briefly, cells were washed with PBS, detached from the flasks using 3 ml of trypsin, collected with RPMI medium and centrifuged at 300 g for 5 min. These were then resuspended in PBS, counted and 0.5×10^6 cells/mouse ([…] in total for 80 mice) were taken and re-centrifuged to be resuspended in 100 μl/mouse of PBS ready to be subcutaneously injected (8 ml in total for 80 mice). […]

[3] = test system: CT26 tumors; assay: CT26 allografts experiment, HA15 and anti-PD1 (Example 1); format: in vivo; details: single treatment; CT26 allograft in BALB/c mice; HA15 0.7 mg/mouse/day IP; anti-PD1 4 injections of 0.125 mg/mouse
Experimental: FIG. 1: CT26 cells (5.104) are injected subcutaneously in Balb/C mice. As soon as the tumors reach 50 mm^3, mice are randomly distributed into different experimental groups and treated daily (intraperitoneal) with Vehicle or HA15 (35 mg/kg) and twice a week during two weeks with anti-PD1 (6.25 mg/kg) or PBS. A: Individual tumor growth curves. B: Survival curves. Mice are euthanized when their tumor reach 800 mm^3. A log-rang (Mantel Cox) test was performed to compare statistically the survival in the different experimental groups. Ns=non-significant, *: p≤0.05, **: p≤0.01, ***: p≤0.001.
CT26 Allografts Experiment Female BALB/cOlaHsd mice were obtained at 5 weeks of age from Envigo Laboratory. One week later, these mice were inoculated subcutaneously with CT26 cells (5×10^5 cells/mouse). As soon as its tumor reach 50 mm^3, each mouse was allocated in the different experimental group following a randomization table created with the “Graphpad Quickcalcs” tool (7 mice/group). […] Tumor volumes were determined using the equation Volume=(Length×(Width)^2)/2. […]

[4] = test system: IFNγ; assay: Intra-tumoral proteins analysis by western blot and ELISA: IFNγ; format: in vivo, mice
Experimental: FIG. 2: HA15 induces in vivo the expression of CHOP and IFNg in mice tumors: tumors were harvested from the mice after HA15 treatment and crushed into lysis buffer to get protein lysates. (A). Tumor lysates were analyzed by western blotting with CHOP, IFNγ and HSP90 antibodies. Densitometric analyses were then performed on the radiogram presented here thanks to the ImageJ (Fiji) program. The signal intensity of the target protein is weighted by that of the HSP90 control. (B) The intra-tumoral […] was dosed in the lysates by a Mouse IFN-g ELISA kit. Mann-Whitney test was performed to compare statistically the protein expressions in the two different groups.
Pieces of tumor were crushed thanks to the “Precellys 24 Tissue Homogenizer” into CK Mix Tubes (#P000918-LYSK0, Bertin Technologies) in presence of protein lysis buffer containing 50 mmol/l Tris-HCl (pH 7.5), 15 mmol/l, NaCl, 1% Triton X-100, and 1× protease and phosphatase inhibitors. Tumor lysates were then centrifuged to remove cells debris.
For western Blot, tumor lysates are prepared in Laemmli buffer. Briefly, tumor lysates (30 μg) were separated by SDS-PAGE, transferred onto a polyvinylidene fluoride membrane (Millipore), and then exposed to the appropriate antibodies. The antibody directed against IFN-gamma was purchased from Abcam (ab133566). Proteins were visualized with the ECL System from Amersham. […]

[5] = liver, after HA15 treatment (data not shown)

**Q.** CC(=O)Nc1nc(-c2cccc(NS(=O)(=O)c3cccc4c(N(C)C)cccc34)c2)cs1 [HA15] was tested. Which CHOP expression ([1]; CT26 tumors harvested after HA15 treatment, western blot) did it give?
**A.** induces

**Q.** And the CHOP expression [1, 5]?
**A.** no variation

**Q.** What about the tumor volume ([2]; after 13 days of daily oral administration, statistically significant compared with vehicle group) of the same compound?
**A.** decreased

**Q.** What about the tumor weight ([2]; after mice termination at day 13, confirms the reduction in tumor growth) of the same compound?
**A.** confirmed

**Q.** What about the complete response [3] of the same compound?
**A.** 14%

**Q.** What about the IFNγ expression ([4]; CT26 tumors harvested after HA15 treatment, western blot and ELISA) of the same compound?
**A.** induces

**Q.** What about the IFNγ expression [4, 5] of the same compound?
**A.** no variation
